This passage reports melting point results from US6727245B2, “Heterobicyclic derivatives” (Fujisawa Pharmaceutical Co., Ltd., priority 1994, dated 2004).

Each structure is given as a SMILES string.

A word on the melting point: it is the temperature, or range, at which the solid turns liquid. The compound `COc1ccccc1NC(=O)Nc1cccc(-n2c(=O)c(Cc3cccnc3)nc3cccnc32)c1` [Example 50(4), 4-[3-[3-(2-Methoxyphenyl)ureido]phenyl]-2-(3-pyridylmethyl)-3-oxo-3,4-dihydropyrido[2,3-b]pyrazine] showed a melting point of 163 to 169 °C.

`COc1ccc2cc(-c3cccc(-n4c(=O)c(Cc5cccnc5)nc5cccnc54)c3)ccc2c1` [Example 54(24), 4-[3-(6-Methoxy-2-naphthyl)phenyl]-2-(3-pyridylmethyl)-3-oxo-3,4-dihydropyrido[2,3-b]pyrazine]: the melting point lay within 228 to 231 °C.

`COC(=O)c1ccc2c(ccn2-c2cccc(-n3c(=O)c(Cc4cccnc4)nc4cccnc43)c2)c1` [Example 54(25), 4-[3-(5-Methoxycarbonylindol-1-yl)phenyl]-2-(3-pyridylmethyl)-3-oxo-3,4-dihydropyrido[2,3-b]pyrazine] displayed a melting point of 193 to 197 °C.

In the case of `O=c1c(Cc2cccnc2)nc2cccnc2n1-c1cccc(-c2cnc3ccccc3c2)c1` [Example 54(26), 4-[3-(3-Quinolyl)phenyl]-2-(3-pyridylmethyl)-3-oxo-3,4-dihydropyrido[2,3-b]pyrazine], the melting point was 237 °C.

On to `COc1ccc(-c2cccc(-n3c(=O)c(Cc4cccnc4)nc4cccnc43)c2)cc1OC1CCCC1` [Example 54(27), 4-[3-(3-Cyclopentyloxy-4-methoxyphenyl)phenyl]-2-(3-pyridylmethyl)-3-oxo-3,4-dihydropyrido[2,3-b]pyrazine], for which the melting point is 109 to 111 °C.

`COC(=O)c1cccc(-c2cccc(-n3c(=O)c(Cc4cccnc4)nc4cccnc43)c2)c1` [Example 54(28), 4-[3-(3-Methoxycarbonylphenyl)phenyl]-2-(3-pyridylmethyl)-3-oxo-3,4-dihydropyrido[2,3-b]pyrazine] showed a melting point of 179 to 181 °C.

In turn, `COC(=O)/C=C/c1cccc(-n2c(=O)c(Cc3cccnc3)nc3cccnc32)c1` [Example 54(29), 4-[3-[ (E)-2-Methoxycarbonylvinyl]phenyl]-2-(3-pyridylmethyl)-3-oxo-3,4-dihydropyrido[2,3-b]pyrazine] came in with a melting point of 180 to 181 °C.

Regarding `O=c1c(Cc2cccnc2)nc2cccnc2n1-c1cccc(-c2cncc3ccccc23)c1` [Example 54(30), 4-[3-(4-Isoquinolyl)phenyl]-2-(3-pyridylmethyl)-3-oxo-3,4-dihydropyrido[2,3-b]pyrazine], the melting point was in the range of 157 to 163 °C.

Compound `CC(=O)Nc1cccc(-c2cccc(-n3c(=O)c(Cc4cccnc4)nc4cccnc43)c2)c1` [Example 54(31), 4-[3-(3-Acetamidophenyl)phenyl]-2-(3-pyridylmethyl)-3-oxo-3,4-dihydropyrido[2,3-b]pyrazine] came in with a melting point of 188 to 194 °C.

For the compound `O=c1c(Cc2ccccc2)nc2cccnc2n1-c1cccc(NS(=O)(=O)c2ccccc2)c1` [Example 68(13), 2-Benzyl-4-(3-phenylsulfonylaminophenyl)-3-oxo-3,4-dihydropyrido[2,3-b]pyrazine], the melting point fell in the range of 199 to 211 °C.

In the case of `O=C(Nc1ccccc1)Nc1cccc(-n2c(=O)c(Cc3ccccc3)nc3ccc(Sc4ccccc4)nc32)c1` [Example 68(14), 2-Benzyl-6-phenylthio-4-[3-(3-phenylureido)phenyl]-3-oxo-3,4-dihydropyrido[2,3-b]pyrazine], the melting point lay in the range of 183 to 185 °C.

In the case of `O=c1c(Cc2ccccc2)nc2cccnc2n1-c1cccc(-n2cccc2)c1` [Example 68(15), 2-Benzyl-4-[3-(pyrrol-1-yl)phenyl]-3-oxo-3,4-dihydropyrido[2,3-b]pyrazine], the melting point fell in the range of 169 to 170 °C.

The compound `O=c1c(Cc2ccc(O)cc2)nc2cccnc2n1-c1cccc(-n2cccc2)c1` [Example 68(16), 2-(4-Hydroxybenzyl)-4-[3-(pyrrol-1-yl)phenyl]-3-oxo-3,4-dihydropyrido[2,3-b]pyrazine] yielded a melting point of 263 °C.

`COC(=O)c1cccn1-c1cccc(-n2c(=O)c(Cc3ccccc3)nc3cccnc32)c1` [Example 68(17), 2-Benzyl-4-[3-(2-methoxycarbonylpyrrol-1-yl)phenyl]-3-oxo-3,4-dihydropyrido[2,3-b]pyrazine] returned a melting point of 190 to 191 °C.

Consider `CNC(=O)Nc1cccc(-c2cccc(-n3c(=O)c(Cc4cccnc4)nc4cccnc43)c2)c1` [Example 72, 4-[3-[3-(3-Methylureido)phenyl]phenyl]-2-(3-pyridylmethyl)-3-oxo-3,4-dihydropyrido[2,3-b]pyrazine], for which the melting point was 248 to 252 °C.

For `CCNC(=O)Nc1cccc(-c2cccc(-n3c(=O)c(Cc4cccnc4)nc4cccnc43)c2)c1` [Example 73, 4-[3-[3-(3-Ethylureido)phenyl]phenyl]-2-(3-pyridylmethyl)-3-oxo-3,4-dihydropyrido[2,3-b]pyrazine], the melting point lay in the range of 257 to 258 °C.

Take `O=C(Nc1ccccc1)Nc1cccc(-c2cccc(-n3c(=O)c(Cc4cccnc4)nc4cccnc43)c2)c1` [Example 74, 4-[3-[3-(3-Phenylureido)phenyl]phenyl]-2-(3-pyridylmethyl)-3-oxo-3,4-dihydropyrido[2,3-b]pyrazine]: the melting point is 234 °C.

`Nc1cccc(-c2cccc(-n3c(=O)c(Cc4cccnc4)nc4cccnc43)c2)c1` [Example 75, 4-[3-(3-Aminophenyl)phenyl]-2-(3-pyridylmethyl)-3-oxo-3,4-dihydropyrido[2,3-b]pyrazine] registered a melting point of 202 to 204 °C.

For the compound `O=C(Nc1cccc(-c2cccc(-n3c(=O)c(Cc4cccnc4)nc4cccnc43)c2)c1)c1ccc2ccccc2c1` [Example 76(2), 4-[3-[3-(2-Naphthoylamino)phenyl]phenyl]-2-(3-pyridylmethyl)-3-oxo-3,4-dihydropyrido[2,3-b]pyrazine], the melting point lay within 202 to 210 °C.

In turn, `O=C(Nc1cccc(-c2cccc(-n3c(=O)c(Cc4cccnc4)nc4cccnc43)c2)c1)c1cc2ccccc2s1` [Example 76(3), 4-[3-[3-[(Benzo[b]thiophen-2-yl)carbonylamino]phenyl]phenyl]-2-(3-pyridylmethyl)-3-oxo-3,4-dihydropyrido[2,3-b]pyrazine] showed a melting point of 216 to 218 °C.

`O=C(Nc1cccc(-c2cccc(-n3c(=O)c(Cc4cccnc4)nc4cccnc43)c2)c1)c1cnc2ccccc2n1` [Example 76(4), 4-[3-[3-(2-Quinoxalinylcarbonylamino)phenyl]phenyl]-2-(3-pyridylmethyl)-3-oxo-3,4-dihydropyrido[2,3-b]pyrazine] registered a melting point of 206 to 209 °C.

In turn, `CCC(=O)Nc1cccc(-c2cccc(-n3c(=O)c(Cc4cccnc4)nc4cccnc43)c2)c1` [Example 76(5), 4-[3-(3-Propionylaminophenyl)phenyl]-2-(3-pyridylmethyl)-3-oxo-3,4-dihydropyrido[2,3-b]pyrazine] gave a melting point of 223 to 224 °C.

In turn, `O=C(/C=C/c1ccncc1)Nc1cccc(-c2cccc(-n3c(=O)c(Cc4cccnc4)nc4cccnc43)c2)c1` [Example 76(6), 4-[3-[3-[(E)-3-(4-Pyridyl)acryloylamino]phenyl]phenyl]-2-(3-pyridylmethyl)-3-oxo-3,4-dihydropyrido[2,3-b]pyrazine] yielded a melting point of 185 to 191 °C.

On to `CCOC(=O)/C=C/C(=O)Nc1cccc(-c2cccc(-n3c(=O)c(Cc4cccnc4)nc4cccnc43)c2)c1` [Example 77(3), 4-[3-[3-[(E)-3-Ethoxycarbonylacryloylamino]phenyl]phenyl]-2-(3-pyridylmethyl)-3-oxo-3,4-dihydropyrido[2,3-b]pyrazine], for which the melting point was 130 to 160 °C (dec.).

Consider `O=C(O)c1ccccc1C(=O)Nc1cccc(-c2cccc(-n3c(=O)c(Cc4cccnc4)nc4cccnc43)c2)c1` [Example 81, 4-[3-[3-(2-carboxybenzoylamino)phenyl]phenyl]-2-(3-pyridylmethyl)-3-oxo-3,4-dihydropyrido[2,3-b]pyrazine], for which the melting point is 150 °C (dec.).

As to `O=C(O)CCC(=O)Nc1cccc(-c2cccc(-n3c(=O)c(Cc4cccnc4)nc4cccnc43)c2)c1` [Example 82(1), 4-[3-[3-(3-Carboxypropanoylamino)phenyl]phenyl]-2-(3-pyridylmethyl)-3-oxo-3,4-dihydropyrido[2,3-b]pyrazine], the melting point was in the range of 193 to 199 °C.

With `O=C(/C=C(\C(=O)O)c1ccccc1)Nc1cccc(-c2cccc(-n3c(=O)c(Cc4cccnc4)nc4cccnc43)c2)c1` [Example 82(2), 4-[3-[3-[(Z)-3-Carboxy-3-phenylacryloylamino]phenyl]phenyl]-2-(3-pyridylmethyl)-3-oxo-3,4-dihydropyrido[2,3-b]pyrazine], the melting point is 189 to 198 °C (dec.).

Consider `O=C(Nc1cccc(-c2cccc(-n3c(=O)c(Cc4cccnc4)nc4cccnc43)c2)c1)C(F)(F)F` [Example 83, 4-[3-(3-trifluoroacetylaminophenyl)phenyl]-2-(3-pyridylmethyl)-3-oxo-3,4-dihydropyrido[2,3-b]pyrazine], for which the melting point lay in the range of 138 to 144 °C.

For the compound `O=c1c(Cc2ccccc2)nc2cccnc2n1-c1cccc(-n2c(Br)ccc2Br)c1` [Example 113, 2-Benzyl-4-[3-(2,5-dibromopyrrol-1-yl)phenyl]-3-oxo-3,4-dihydropyrido[2,3-b]pyrazine], the melting point was 90 °C (dec.).
